In the supplement of paper PMC10307832:

Key:
Assay in all cases: relative viability (nuclei count vs DMSO), 5 days (fraction); higher = more cells survive
NCI-H2228 = tested on: NCI-H2228
How it was run: (§1)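 One day after seeding in 1536-well plates, lung cancer cell lines were dosed by pin tool. Dosing was either single-drug or a fixed anchor-drug dose plus five library-drug doses (not always all listed) in √10 steps. After 5 days, nuclei were stained in one fix-and-stain step and counted on 4× images, and relative viability is the nuclei count of treated wells over that of vehicle wells, given as the median of duplicate plates.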

NCI-H2087 = tested on: NCI-H2087
How it was run: as §1

LC-2-ad = tested on: LC-2-ad
How it was run: as §1

HCC-366 = tested on: HCC-366
How it was run: as §1

HCC-78 = tested on: HCC-78
How it was run: as §1

UMC-11 = tested on: UMC-11
How it was run: as §1

NCI-H1755 = tested on: NCI-H1755
How it was run: as §1

CAL-12T = tested on: CAL-12T
How it was run: as §1

NCI-H3122 = tested on: NCI-H3122
How it was run: as §1

PC-3 [JPC-3] = tested on: PC-3 [JPC-3]
How it was run: as §1

NCI-H1651 = tested on: NCI-H1651
How it was run: as §1

LOU-NH91 = tested on: LOU-NH91
How it was run: as §1

ChaGo-K-1 = tested on: ChaGo-K-1
How it was run: as §1

NCI-H460 = tested on: NCI-H460
How it was run: as §1

ABC-1 = tested on: ABC-1
How it was run: as §1

NCI-H1793 = tested on: NCI-H1793
How it was run: as §1

LU99A = tested on: LU99A
How it was run: as §1

NCI-H2170 = tested on: NCI-H2170
How it was run: as §1

NCI-H1395 = tested on: NCI-H1395
How it was run: as §1

NCI-H2405 = tested on: NCI-H2405
How it was run: as §1

NCI-H1944 = tested on: NCI-H1944
How it was run: as §1

RERF-LC-KJ = tested on: RERF-LC-KJ
How it was run: as §1

## Nc1ccn([C@@H]2O[C@H](CO)[C@@H](O)[C@@H]2O)c(=O)n1 [Cytarabine] + COc1cc2c(Oc3ccc(NC(=O)C4(C(=O)Nc5ccc(F)cc5)CC4)cc3F)ccnc2cc1OCCCN1CCOCC1 [Foretinib] (partner 0.25 µM)
NCI-H2228; first compound 0.005 µM
  relative viability: 0.479
NCI-H2228; first compound 0.01581 µM
  relative viability: 0.563
NCI-H2228; first compound 0.05 µM
  relative viability: 0.285
NCI-H2228; first compound 0.1581 µM
  relative viability: 0.173
NCI-H2228; first compound 0.5 µM
  relative viability: 0.166
NCI-H2087; first compound 0.005 µM
  relative viability: 1.11
NCI-H2087; first compound 0.01581 µM
  relative viability: 0.834
NCI-H2087; first compound 0.05 µM
  relative viability: 0.851
NCI-H2087; first compound 0.1581 µM
  relative viability: 0.491
NCI-H2087; first compound 0.5 µM
  relative viability: 0.253
LC-2-ad; first compound 0.005 µM
  relative viability: 0.899
LC-2-ad; first compound 0.01581 µM
  relative viability: 0.823
LC-2-ad; first compound 0.05 µM
  relative viability: 0.839
LC-2-ad; first compound 0.1581 µM
  relative viability: 0.62
LC-2-ad; first compound 0.5 µM
  relative viability: 0.41
HCC-366; first compound 0.005 µM
  relative viability: 0.991
HCC-366; first compound 0.01581 µM
  relative viability: 0.831
HCC-366; first compound 0.05 µM
  relative viability: 0.584
HCC-366; first compound 0.1581 µM
  relative viability: 0.119
HCC-366; first compound 0.5 µM
  relative viability: 0.105
HCC-78; first compound 0.005 µM
  relative viability: 0.601
HCC-78; first compound 0.01581 µM
  relative viability: 0.482
HCC-78; first compound 0.05 µM
  relative viability: 0.524
HCC-78; first compound 0.1581 µM
  relative viability: 0.378
HCC-78; first compound 0.5 µM
  relative viability: 0.372
UMC-11; first compound 0.005 µM
  relative viability: 0.653
UMC-11; first compound 0.01581 µM
  relative viability: 0.63
UMC-11; first compound 0.05 µM
  relative viability: 0.45
UMC-11; first compound 0.1581 µM
  relative viability: 0.349
UMC-11; first compound 0.5 µM
  relative viability: 0.261
NCI-H1755; first compound 0.005 µM
  relative viability: 0.962
NCI-H1755; first compound 0.01581 µM
  relative viability: 0.886
NCI-H1755; first compound 0.05 µM
  relative viability: 0.736
NCI-H1755; first compound 0.1581 µM
  relative viability: 0.387
NCI-H1755; first compound 0.5 µM
  relative viability: 0.356
CAL-12T; first compound 0.005 µM
  relative viability: 1.11
CAL-12T; first compound 0.01581 µM
  relative viability: 1.18
CAL-12T; first compound 0.05 µM
  relative viability: 1.05
CAL-12T; first compound 0.1581 µM
  relative viability: 0.619
CAL-12T; first compound 0.5 µM
  relative viability: 0.358
NCI-H3122; first compound 0.005 µM
  relative viability: 0.887
NCI-H3122; first compound 0.01581 µM
  relative viability: 0.805
NCI-H3122; first compound 0.05 µM
  relative viability: 0.777
NCI-H3122; first compound 0.1581 µM
  relative viability: 0.509
NCI-H3122; first compound 0.5 µM
  relative viability: 0.344
PC-3 [JPC-3]; first compound 0.005 µM
  relative viability: 0.947
PC-3 [JPC-3]; first compound 0.01581 µM
  relative viability: 0.832
PC-3 [JPC-3]; first compound 0.05 µM
  relative viability: 0.939
PC-3 [JPC-3]; first compound 0.1581 µM
  relative viability: 0.629
PC-3 [JPC-3]; first compound 0.5 µM
  relative viability: 0.615
NCI-H1651; first compound 0.005 µM
  relative viability: 0.769
NCI-H1651; first compound 0.01581 µM
  relative viability: 0.808
NCI-H1651; first compound 0.05 µM
  relative viability: 0.723
NCI-H1651; first compound 0.1581 µM
  relative viability: 0.583
NCI-H1651; first compound 0.5 µM
  relative viability: 0.372
LOU-NH91; first compound 0.005 µM
  relative viability: 0.993
LOU-NH91; first compound 0.01581 µM
  relative viability: 0.926
LOU-NH91; first compound 0.05 µM
  relative viability: 0.869
LOU-NH91; first compound 0.1581 µM
  relative viability: 0.585
LOU-NH91; first compound 0.5 µM
  relative viability: 0.712
ChaGo-K-1; first compound 0.005 µM
  relative viability: 0.734
ChaGo-K-1; first compound 0.01581 µM
  relative viability: 0.59
ChaGo-K-1; first compound 0.05 µM
  relative viability: 0.391
ChaGo-K-1; first compound 0.1581 µM
  relative viability: 0.259
ChaGo-K-1; first compound 0.5 µM
  relative viability: 0.251
NCI-H460; first compound 0.005 µM
  relative viability: 1.05
NCI-H460; first compound 0.01581 µM
  relative viability: 0.837
NCI-H460; first compound 0.05 µM
  relative viability: 0.492
NCI-H460; first compound 0.1581 µM
  relative viability: 0.0445
NCI-H460; first compound 0.5 µM
  relative viability: 0.0401
ABC-1; first compound 0.005 µM
  relative viability: 0.997
ABC-1; first compound 0.01581 µM
  relative viability: 1.14
ABC-1; first compound 0.05 µM
  relative viability: 1.06
ABC-1; first compound 0.1581 µM
  relative viability: 1.01
ABC-1; first compound 0.5 µM
  relative viability: 0.63
NCI-H1793; first compound 0.005 µM
  relative viability: 0.812
NCI-H1793; first compound 0.01581 µM
  relative viability: 0.684
NCI-H1793; first compound 0.05 µM
  relative viability: 0.683
NCI-H1793; first compound 0.1581 µM
  relative viability: 0.545
NCI-H1793; first compound 0.5 µM
  relative viability: 0.494
LU99A; first compound 0.005 µM
  relative viability: 0.762
LU99A; first compound 0.01581 µM
  relative viability: 0.773
LU99A; first compound 0.05 µM
  relative viability: 0.809
LU99A; first compound 0.1581 µM
  relative viability: 0.74
LU99A; first compound 0.5 µM
  relative viability: 0.648
NCI-H2170; first compound 0.005 µM
  relative viability: 0.736
NCI-H2170; first compound 0.01581 µM
  relative viability: 0.458
NCI-H2170; first compound 0.05 µM
  relative viability: 0.672
NCI-H2170; first compound 0.1581 µM
  relative viability: 0.515
NCI-H2170; first compound 0.5 µM
  relative viability: 0.569
NCI-H1395; first compound 0.005 µM
  relative viability: 0.917
NCI-H1395; first compound 0.01581 µM
  relative viability: 0.757
NCI-H1395; first compound 0.05 µM
  relative viability: 0.548
NCI-H1395; first compound 0.1581 µM
  relative viability: 0.492
NCI-H1395; first compound 0.5 µM
  relative viability: 0.413
NCI-H2405; first compound 0.005 µM
  relative viability: 1.02
NCI-H2405; first compound 0.01581 µM
  relative viability: 0.908
NCI-H2405; first compound 0.05 µM
  relative viability: 0.747
NCI-H2405; first compound 0.1581 µM
  relative viability: 0.618
NCI-H2405; first compound 0.5 µM
  relative viability: 0.493
NCI-H1944; first compound 0.005 µM
  relative viability: 0.633
NCI-H1944; first compound 0.01581 µM
  relative viability: 0.438
NCI-H1944; first compound 0.05 µM
  relative viability: 0.331
NCI-H1944; first compound 0.1581 µM
  relative viability: 0.223
NCI-H1944; first compound 0.5 µM
  relative viability: 0.168
RERF-LC-KJ; first compound 0.005 µM
  relative viability: 0.855
RERF-LC-KJ; first compound 0.01581 µM
  relative viability: 0.787
RERF-LC-KJ; first compound 0.05 µM
  relative viability: 0.735
RERF-LC-KJ; first compound 0.1581 µM
  relative viability: 0.545
RERF-LC-KJ; first compound 0.5 µM
  relative viability: 0.469
